Laboratory results from ChEMBL document CHEMBL3046670, “Synthesis of Esters, Amides, N-Alkylamides and N, N-Dialkylamides of 2, 3-Dimethyl-5-(2, 5-disubstituted phenylaminocarbonyl)-6-pyrazinecarboxylic Acid and Their Phytotoxicity” (1992).
The source made the active and inactive calls. The rule behind the calls is not given here.

Legend:
Assay type in all cases: functional
Eleusine indica [1] = experiment: Inhibition of Eleusine indica germination at 300 ppm after 5 days relative to control; details: for inhibition at 300 ppm: 120 h
Eleusine indica [2] = experiment: Inhibition of Eleusine indica seed germination at 50 ppm after 5 days relative to control; details: for inhibition at 50 ppm: 120 h
Lactuca sativa [3] = experiment: Inhibition of Lactuca sativa longifolia Lams (lettuce) seed germination at 300 ppm after 5 days relative to control; details: for inhibition at 300 ppm: 120 h
Lactuca sativa [4] = experiment: Inhibition of Lactuca sativa longifolia Lams (lettuce) seed germination at 100 ppm after 5 days relative to control; details: for inhibition at 100 ppm: 120 h
Lactuca sativa [5] = experiment: Inhibition of Lactuca sativa longifolia Lams (lettuce) seed germination at 50 ppm after 5 days relative to control; details: for inhibition at 50 ppm: 120 h
Eleusine indica [6] = experiment: Inhibition of Eleusine indica seed germination at 100 ppm after 5 days relative to control; details: for inhibition at 100 ppm: 120 h
Sagittaria pygmaea = experiment: Herbicidal activity against Sagittaria pygmaea at 50 g a.i./a measured after 3 weeks
Cyperus serotinus = experiment: Herbicidal activity against Cyperus serotinus at 50 g a.i./a measured after 3 weeks
[7] = tested on: Schoenoplectiella juncoides; experiment: Herbicidal activity against Schoenoplectiella juncoides at 50 g a.i./a applied at one-leaf stage by foliar application measured after 3 weeks
Oryza sativa = experiment: Herbicidal activity against Oryza sativa (rice) at 50 g a.i./a applied at one-leaf stage by foliar application measured after 3 weeks
[8] = tested on: Schoenoplectiella juncoides; experiment: Pre-emergence herbicidal activity against Schoenoplectiella juncoides at 50 g a.i./a measured after 3 weeks
Echinochloa crus-galli = experiment: Herbicidal activity against Echinochloa crus-galli (barnyard grass) at 50 g a.i./a measured after 2 weeks

Structure (SMILES)	inhibition (Eleusine indica [1])	inhibition (Eleusine indica [2])	inhibition (Lactuca sativa [3])	inhibition (Lactuca sativa [4])	inhibition (Lactuca sativa [5])	inhibition (Eleusine indica [6])	inhibition at 300 ppm (Eleusine indica [1])	inhibition at 300 ppm (Lactuca sativa [3])	inhibition at 100 ppm (Lactuca sativa [4])	inhibition at 100 ppm (Eleusine indica [6])	also measured
CCCN(CCC)C(=O)c1nc(C)c(C)nc1C(=O)Nc1cc(C)ccc1C	inactive	inactive	inactive	inactive	inactive	inactive	–	–	–	–	–
Cc1ccc(C)c(NC(=O)c2nc(C)c(C)nc2C(=O)OCCC(C)C)c1	inactive	inactive	inactive	inactive	inactive	inactive	–	–	–	–	–
Cc1ccc(C)c(NC(=O)c2nc(C)c(C)nc2C(=O)NCC(C)C)c1	–	–	–	–	–	–	50%	62%	59%	47%	Activity (Sagittaria pygmaea): 95%; Activity (Cyperus serotinus): 100%; inhibition at 50 ppm (Eleusine indica [2]): 53%; Activity [7]: 80%; Activity (Oryza sativa): 99%; inhibition at 50 ppm (Lactuca sativa [5]): 55%; Activity [8]: 10%; Activity (Echinochloa crus-galli): 90%
Cc1ccc(C)c(NC(=O)c2nc(C)c(C)nc2C(N)=O)c1	–	–	–	–	–	–	–	–	–	20%	–
COC(=O)c1nc(C)c(C)nc1C(=O)Nc1cc(Cl)ccc1Cl	–	–	–	–	–	inactive	–	–	–	–	–
CCCCN(CCCC)C(=O)c1nc(C)c(C)nc1C(=O)Nc1cc(C)ccc1C	inactive	inactive	inactive	inactive	inactive	inactive	–	–	–	–	–
CCC(C)OC(=O)c1nc(C)c(C)nc1C(=O)Nc1cc(C)ccc1C (stereo not given)	–	–	–	–	–	–	15%	36%	32%	13%	–
Cc1ccc(C)c(NC(=O)c2nc(C)c(C)nc2C(=O)NCCC(C)C)c1	–	–	–	–	–	–	40%	47%	41%	34%	Activity (Sagittaria pygmaea): 85%; Activity (Cyperus serotinus): 80%; inhibition at 50 ppm (Eleusine indica [2]): 32%; Activity [7]: 20%; Activity (Oryza sativa): 99%; inhibition at 50 ppm (Lactuca sativa [5]): 43%; Activity [8]: 100%; Activity (Echinochloa crus-galli): 70%
CCCCNC(=O)c1nc(C)c(C)nc1C(=O)Nc1cc(C)ccc1C	–	–	–	–	–	–	40%	34%	35%	39%	Activity (Sagittaria pygmaea): 90%; Activity (Cyperus serotinus): 100%; Activity [7]: 60%; Activity (Oryza sativa): 100%; Activity [8]: 100%; Activity (Echinochloa crus-galli): 80%
CCCOC(=O)c1nc(C)c(C)nc1C(=O)Nc1cc(Cl)ccc1Cl	–	–	–	–	–	inactive	–	–	–	–	–
CCCCCN(CCCCC)C(=O)c1nc(C)c(C)nc1C(=O)Nc1cc(C)ccc1C	inactive	inactive	inactive	inactive	inactive	inactive	–	–	–	–	–
CCC(C)NC(=O)c1nc(C)c(C)nc1C(=O)Nc1cc(C)ccc1C (stereo not given)	–	–	–	–	–	–	44%	72%	65%	41%	Activity (Sagittaria pygmaea): 75%; Activity (Cyperus serotinus): 95%; inhibition at 50 ppm (Eleusine indica [2]): 38%; Activity [7]: 50%; Activity (Oryza sativa): 99%; inhibition at 50 ppm (Lactuca sativa [5]): 61%; Activity [8]: 100%; Activity (Echinochloa crus-galli): 70%
CCCCCOC(=O)c1nc(C)c(C)nc1C(=O)Nc1cc(C)ccc1C	inactive	inactive	inactive	inactive	inactive	inactive	–	–	–	–	–
Cc1ccc(C)c(NC(=O)c2nc(C)c(C)nc2C(=O)OC(C)C)c1	–	–	–	–	–	–	–	–	–	20%	–
CCN(CC)C(=O)c1nc(C)c(C)nc1C(=O)Nc1cc(C)ccc1C	inactive	inactive	inactive	inactive	inactive	inactive	–	–	–	–	–
CCCC(C)OC(=O)c1nc(C)c(C)nc1C(=O)Nc1cc(C)ccc1C (stereo not given)	–	inactive	–	–	inactive	–	33%	50%	44%	32%	–
Cc1ccc(C)c(NC(=O)c2nc(C)c(C)nc2C(=O)OCC(C)C)c1	inactive	inactive	inactive	inactive	inactive	inactive	–	–	–	–	–
CCCCOC(=O)c1nc(C)c(C)nc1C(=O)Nc1cc(C)ccc1C	inactive	inactive	inactive	inactive	inactive	inactive	–	–	–	–	–
CCOC(=O)c1nc(C)c(C)nc1C(=O)Nc1cc(Cl)ccc1Cl	–	–	–	–	–	inactive	–	–	–	–	–
Cc1ccc(C)c(NC(=O)c2nc(C)c(C)nc2C(=O)N(C)C)c1	inactive	inactive	inactive	inactive	inactive	inactive	–	–	–	–	–
Cc1ccc(C)c(NC(=O)c2nc(C)c(C)nc2C(=O)NC(C)C)c1	–	–	–	–	–	–	36%	68%	66%	30%	Activity (Sagittaria pygmaea): 0%; Activity (Cyperus serotinus): 0%; inhibition at 50 ppm (Eleusine indica [2]): 30%; Activity [7]: 30%; Activity (Oryza sativa): 70%; inhibition at 50 ppm (Lactuca sativa [5]): 58%; Activity [8]: 50%; Activity (Echinochloa crus-galli): 0%
Cc1nc(C(=O)Nc2cc(Cl)ccc2Cl)c(C(=O)OC(C)C)nc1C	–	–	–	–	–	inactive	–	–	–	–	–
CCCNC(=O)c1nc(C)c(C)nc1C(=O)Nc1cc(C)ccc1C	–	–	–	–	–	–	47%	54%	56%	47%	Activity (Sagittaria pygmaea): 0%; Activity (Cyperus serotinus): 90%; inhibition at 50 ppm (Eleusine indica [2]): 42%; Activity [7]: 40%; Activity (Oryza sativa): 95%; inhibition at 50 ppm (Lactuca sativa [5]): 43%; Activity [8]: 80%; Activity (Echinochloa crus-galli): 50%
